Assays:
[1] = biological target: T1, Purified GPIIb/IIIa receptor (Homo sapiens, UniProt P05106+P08514); test: Fibrinogen receptor (GPIIb/IIIa) binding inhibition test (solid-phase, ELISA detection of bound fibrinogen); conditions: inhibition of fibrinogen (2 µg/ml) binding to solid phased purified GPIIb/IIIa, 4°C, 16 hours
T1 construct: from tissue; the cited Pytela method purifies the receptor from platelet extracts (own knowledge)
Method: Purified GPIIb/IIIa was prepared by referring to the methods of Pytela et al (Science, 231 (1986) 1559) and a binding measurement system of solid phased GPIIb/IIIa was carried out by referring to the method of Kouns et al (Blood, 80 (1992) 2539).
Purified GPIIb/IIIa receptor was solidified on 96-well microtiter plates by reacting in a solution (pH 7.4) containing 20 mM Tris-hydrochloric acid, 150 mM sodium chloride, 1 mM calcium chloride, 1 mM magnesium chloride and 0.0005 % Triton X-100 at 4°C for 16 hours. The solid phase was then washed once with a solution (pH 7.4) containing 20 mM Tris-hydrochloric acid, 150 mM sodium chloride, 1 mM calcium chloride, 1 mM magnesium chloride and 0.05 % Tween 20 (Buffer B), and blocked by a solution (pH 7.4) containing 20 mM Tris-hydrochloric acid, 150 mM sodium chloride, 1 mM calcium chloride, 1 mM magnesium chloride and 25 % Block Ace in an amount of 150 µL/well at room temperature for 2 hours. […] The amount of the fibrinogen bound to the plates was measured by an enzyme-linked immunosorbent assay method using antifibrinogen primary antibody and peroxidase-labelled secondary antibody to calculate IC50 value. […]

[2] = Hygroscopicity test (change rate of weight after storage at defined relative humidity); format: physicochemical; conditions: statement in words; test at 25°C, storage for 30 days, numeric data only in Fig 1
Method: Compound 1 obtained in the above example and dihydrate of the compound of Formula (1) were used as test drugs. About 100 mg of the test drug was taken into a weighing bottle and weighed accurately. The weighed test drug in the weighing bottle was stored at 25°C in a decicator which was adjusted to the defined relative humidity by using a desired saturated salt solution or a thermo-hygrostat (Tabaiestec SH-220) which was adjusted to the proper relative humidity.
After storage for 30 days, the test drug was weighed, and the change rate of weight was calculated to use as an index of hygroscopicity.

[3] = system: Blood platelet aggregation; test: Human in vitro blood platelet aggregation inhibition test (ADP-induced, PRP); format: cell-based; conditions: ADP final concentration 7 µM, concentration to inhibit the maximum aggregation by 50 %
Method: Citrated blood (the volume ratio of 3.13 % sodium citrate solution to blood is 1:9) was collected from the cubital vein of a healthy human who had not been received any drugs known to affect the function of blood platelet within 2 weeks prior to starting the test. The blood was centrifuged at 120 x g at room temperature for 15 minutes to give platelet rich plasma (PRP) as a supernatant, and further centrifuged at 1500 x g for 10 minutes to give platelet poor plasma (PPP) as a supernatant.
The blood platelet counts of PRP were adjusted to 50 ― 60 x 10^4/µL by diluting with PPP.
Blood platelet aggregation was monitored according to the method of Born G.V.R., [Nature, vol. 194, page 927 (1962)] using adenosine diphosphate (produced by Sigma Co.; hereinafter referred to as "ADP") as an aggregation-inducing substance. That is, a solution of Compound 1 or dihydrate of the compound of Formula (1) as a test drug in dimethyl sulfoxide was adjusted to the desired concentration with a physiological saline solution. […] The mixture was monitored for 5 minutes by using a blood platelet aggregation ability measurement apparatus (Aggricoda TM · PA-3210; made by Kyoto Daiichi Kagaku Co.) and the concentration of the test drug to inhibit the maximum aggregation by 50 % was calculated.

T1 sequence (P08514 32-887 limits assumed): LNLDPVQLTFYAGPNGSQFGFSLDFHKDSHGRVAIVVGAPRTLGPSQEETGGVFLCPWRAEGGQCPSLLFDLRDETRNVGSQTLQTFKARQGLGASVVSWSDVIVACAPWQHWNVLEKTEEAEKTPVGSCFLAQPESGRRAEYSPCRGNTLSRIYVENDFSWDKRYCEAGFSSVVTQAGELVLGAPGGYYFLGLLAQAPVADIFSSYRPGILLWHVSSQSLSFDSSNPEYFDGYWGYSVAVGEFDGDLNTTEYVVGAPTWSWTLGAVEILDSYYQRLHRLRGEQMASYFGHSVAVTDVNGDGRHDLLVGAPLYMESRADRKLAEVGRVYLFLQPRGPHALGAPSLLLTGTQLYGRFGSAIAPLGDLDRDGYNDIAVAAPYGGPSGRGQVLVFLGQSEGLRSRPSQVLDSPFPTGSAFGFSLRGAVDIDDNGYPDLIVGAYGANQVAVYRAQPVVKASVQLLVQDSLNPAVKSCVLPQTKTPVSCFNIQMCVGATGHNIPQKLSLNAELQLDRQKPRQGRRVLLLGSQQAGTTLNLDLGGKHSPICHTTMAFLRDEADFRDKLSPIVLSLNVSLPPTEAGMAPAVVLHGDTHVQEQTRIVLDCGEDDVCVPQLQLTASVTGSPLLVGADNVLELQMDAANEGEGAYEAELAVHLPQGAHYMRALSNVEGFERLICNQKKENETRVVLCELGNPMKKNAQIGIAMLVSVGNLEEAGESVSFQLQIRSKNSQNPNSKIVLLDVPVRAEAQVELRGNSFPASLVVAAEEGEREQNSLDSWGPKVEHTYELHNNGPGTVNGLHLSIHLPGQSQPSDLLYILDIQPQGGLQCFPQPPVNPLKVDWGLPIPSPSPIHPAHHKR
T1 sequence (P08514 891-1039 limits assumed): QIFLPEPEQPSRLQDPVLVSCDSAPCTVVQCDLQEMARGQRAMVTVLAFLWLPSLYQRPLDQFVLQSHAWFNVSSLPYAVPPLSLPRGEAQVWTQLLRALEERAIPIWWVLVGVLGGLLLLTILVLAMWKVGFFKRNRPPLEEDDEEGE
T1 sequence (P05106 27-788): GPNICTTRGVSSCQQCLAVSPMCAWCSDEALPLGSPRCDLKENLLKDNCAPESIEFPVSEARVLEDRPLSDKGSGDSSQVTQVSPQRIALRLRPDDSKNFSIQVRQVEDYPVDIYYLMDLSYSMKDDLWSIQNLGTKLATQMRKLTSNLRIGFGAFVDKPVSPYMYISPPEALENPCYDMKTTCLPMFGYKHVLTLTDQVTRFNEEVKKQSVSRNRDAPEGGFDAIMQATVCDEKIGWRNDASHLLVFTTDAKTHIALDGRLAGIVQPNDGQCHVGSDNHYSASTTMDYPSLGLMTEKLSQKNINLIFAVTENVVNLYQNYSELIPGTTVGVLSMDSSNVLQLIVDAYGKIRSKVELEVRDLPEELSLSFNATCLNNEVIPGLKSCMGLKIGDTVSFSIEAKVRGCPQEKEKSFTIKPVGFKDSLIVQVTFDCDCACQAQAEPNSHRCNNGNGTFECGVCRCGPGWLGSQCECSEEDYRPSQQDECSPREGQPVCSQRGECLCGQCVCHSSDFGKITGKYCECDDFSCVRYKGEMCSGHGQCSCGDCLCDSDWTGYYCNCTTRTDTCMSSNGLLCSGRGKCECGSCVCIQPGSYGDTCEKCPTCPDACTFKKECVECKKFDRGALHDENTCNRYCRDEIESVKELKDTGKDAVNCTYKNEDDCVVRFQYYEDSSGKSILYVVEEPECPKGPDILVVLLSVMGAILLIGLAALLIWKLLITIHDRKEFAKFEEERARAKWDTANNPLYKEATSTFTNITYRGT

SMILES	IC50 [1] [nM]	hygroscopicity [2]	IC50 ([3]; Homo sapiens, Platelet) [nM]	IC50 [3] [nM]
Cc1c(C(=O)NCCC(=O)O)sc(=NC(=O)c2ccc(C(=N)N3CCC4(CC3)OCCO4)cc2)n1C [Compound 1, N-(2-carboxyethyl)-2-{4-[(4,4-ethylenedioxy)piperidin-1-yl]imidoylbenzoylimino}-3,4-dimethyl-3H-thiazoline-5-carboxamide p-toluenesulfonate dihydrate]	0.0805	non-hygroscopic	22.1	
Cc1c(C(=O)NCCC(=O)O)sc(=NC(=O)c2ccc(C(=N)N3CCC4(CC3)OCCO4)cc2)n1C [Dihydrate of the compound of Formula (1), reference compound]				21.1
